From patent US7119094B1, “Substituted polycyclic aryl and heteroarpyl pyrazinones useful for selective inhibition of the coagulation cascade” (Warner-Lambert Company, priority 2000, dated 2006)

Legend:
Format in all cases: biochemical
[1] = biological target: T1, recombinant soluble tissue factor and recombinant human factor VIIa (TF-VIIa) (Homo sapiens, UniProt P08709); experiment: TF-VIIa Assay; settings: for IC50: cells without % sign, read-out: IC50 TF-VIIa; for % Inhibition TF-VIIa (100 νM): inhibitor at 100 νM
T1 construct: conversion of coagulation factor VII to VIIa by Xa; purchased American Diagnostica, Greenwich Conn; host or cells: factor VIIa purchased; soluble TF made in house in E. coli

[2] = biological target: T2, Trypsin (type 1× from porcine pancreas) (Sus scrofa, UniProt P00761); experiment: Trypsin Assay; settings: for IC50: cells without % sign, read-out: IC50 Trypsin II; for % Inhibition Trpysin II (100 νM): inhibitor at 100 νM
T2 construct: Trypsin (5 ug/ml; type 1× from porcine pancreas); purchased Sigma, St. Louis Mo; host or cells: porcine pancreas

Human factor Xa = biological target: T3, Human factor Xa (Homo sapiens, UniProt P00742); experiment: Xa Assay; settings: for % Inhibition Factor Xa (30 µM): at 30 µM, cells with % sign, and bare 0
T3 construct: Human factor Xa (0.3 nM); purchased Enzyme Research Laboratories, South Bend Ind
T3 sequence (P00742 235-488 limits assumed): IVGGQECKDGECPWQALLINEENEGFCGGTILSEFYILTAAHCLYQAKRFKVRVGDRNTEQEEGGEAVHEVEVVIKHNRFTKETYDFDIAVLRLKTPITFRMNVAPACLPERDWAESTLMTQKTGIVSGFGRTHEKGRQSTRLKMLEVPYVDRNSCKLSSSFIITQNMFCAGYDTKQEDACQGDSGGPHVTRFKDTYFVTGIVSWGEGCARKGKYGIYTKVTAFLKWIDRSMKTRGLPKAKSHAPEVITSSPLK
T3 sequence (P00742 41-179 limits assumed): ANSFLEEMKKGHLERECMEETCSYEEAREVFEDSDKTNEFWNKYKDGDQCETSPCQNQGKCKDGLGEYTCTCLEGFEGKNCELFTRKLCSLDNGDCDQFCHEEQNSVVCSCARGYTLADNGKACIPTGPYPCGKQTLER

T2 sequence (P00761 9-231): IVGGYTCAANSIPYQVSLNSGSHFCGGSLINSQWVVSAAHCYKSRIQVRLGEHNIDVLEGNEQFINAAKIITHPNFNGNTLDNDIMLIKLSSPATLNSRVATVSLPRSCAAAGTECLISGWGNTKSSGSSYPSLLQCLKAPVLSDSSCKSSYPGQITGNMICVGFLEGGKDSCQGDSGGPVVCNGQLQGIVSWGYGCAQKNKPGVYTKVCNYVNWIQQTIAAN
T1 sequence (P08709 213-466 limits assumed): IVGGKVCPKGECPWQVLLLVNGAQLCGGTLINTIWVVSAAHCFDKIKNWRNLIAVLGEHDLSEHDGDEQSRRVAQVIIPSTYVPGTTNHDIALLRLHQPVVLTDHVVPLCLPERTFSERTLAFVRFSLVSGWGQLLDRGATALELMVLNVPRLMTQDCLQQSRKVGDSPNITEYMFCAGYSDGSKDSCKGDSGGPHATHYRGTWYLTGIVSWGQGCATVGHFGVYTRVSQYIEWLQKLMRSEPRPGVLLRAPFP
T1 sequence (P08709 61-212 limits assumed): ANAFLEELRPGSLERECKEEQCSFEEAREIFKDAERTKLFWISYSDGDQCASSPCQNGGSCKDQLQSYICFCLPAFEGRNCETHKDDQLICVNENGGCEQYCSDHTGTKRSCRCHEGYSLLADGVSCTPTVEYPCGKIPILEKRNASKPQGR
T1 sequence (P13726 33-251 partner limits assumed): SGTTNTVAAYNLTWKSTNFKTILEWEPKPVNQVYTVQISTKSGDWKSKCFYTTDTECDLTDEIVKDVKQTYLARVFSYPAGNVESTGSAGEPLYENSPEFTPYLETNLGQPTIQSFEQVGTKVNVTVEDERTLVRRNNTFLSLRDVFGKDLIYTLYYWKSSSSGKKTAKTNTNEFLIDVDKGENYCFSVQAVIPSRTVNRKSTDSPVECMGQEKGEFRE

SMILES | % Inhibition TF-VIIa (100 νM) [1] [%] | % Inhibition Trpysin II (100 νM) [2] [%] | also measured
CC(C)CC(C)Nc1nc(Cl)c(-c2cccc(N)c2)n(CC(=O)NCc2ccc(C(=N)N)cc2)c1=O (centres unmarked) [1526-17] |  |  | IC50 [1]: 80 nM; IC50 [2]: 170 nM; IC50 (Human factor Xa; cells without % sign): > 30000 nM
Cc1c(Cl)nc(NCCN2CCOCC2)c(=O)n1CC(=O)NCCc1ccncc1 [Example E-0007] | 0 | 0 | 
O=C(Cn1c(-c2ccc(Cl)cc2)c(Cl)nc(NCCc2ccccc2)c1=O)NCCc1ccncc1 [Example E-0026] | 0 | 3 | 
O=C(Cn1c(-c2ccc(Cl)cc2)c(Cl)nc(NCc2ccncc2)c1=O)NCCc1ccncc1 [Example E-0032] | 0 | 3 | 
Cc1c(Cl)nc(NCCc2ccccc2)c(=O)n1CC(=O)NCCc1ccncc1 [Example E-0002] | 0 | 0 | 
CC(C(=O)NCc1ccc(C(=N)N)cc1)n1c(-c2ccccc2)c(Cl)nc(NCCc2ccccc2)c1=O (centres unmarked) [Example 1517-17] |  |  | IC50 [1]: 1800 nM; IC50 [2]: 850 nM; % Inhibition Factor Xa (30 µM) (Human factor Xa): 0%
O=C(Cn1c(-c2ccc(Cl)cc2)c(Cl)nc(NCCc2ccc(Cl)cc2)c1=O)NCCc1ccncc1 [Example E-0020] | 0 | 4 | 
CC(C(=O)NCc1ccc(C(=N)N)cc1)n1c(-c2ccccc2)c(Cl)nc(NC2CCC2)c1=O (centres unmarked) [Example 1517-11] |  |  | IC50 [1]: 3000 nM; IC50 [2]: 1900 nM; % Inhibition Factor Xa (30 µM) (Human factor Xa): 0%
O=C(Cn1c(-c2ccccc2)c(Cl)nc(NCc2ccccc2)c1=O)NCCc1ccncc1 [Example E-0009] | 0 | 1 | 
O=C(Cn1c(-c2ccc(Cl)cc2)c(Cl)nc(NCc2ccncc2)c1=O)NCCc1ccncc1 [Example E-0024] | 0 | 1 | 
O=C(Cn1c(-c2ccc(Cl)cc2)c(Cl)nc(NCCc2cccc(Cl)c2)c1=O)NCCc1ccncc1 [Example E-0019] | 0 | 2 | 
C[C@H](Nc1nc(Cl)c(-c2cccc(N)c2)n(CC(=O)NCc2ccc(C(=N)N)cc2)c1=O)C(=O)O [Example 135] |  |  | % Inhibition Factor Xa at 100 μM (Human factor Xa; at 100 μM): 6% at

Continued, in another order:

% Inhibition TF-VIIa (100 νM) [1] [%] | % Inhibition Trpysin II (100 νM) [2] [%] | SMILES | also measured
1 | 8 | O=C(Cn1c(-c2cccc(Cl)c2)c(Cl)nc(NCCc2cccc(Cl)c2)c1=O)NCCc1ccncc1 [Example E-0091] | 
0 | 11 | O=C(Cn1c(-c2cccc(Cl)c2)c(Cl)nc(NCCc2cccc(Cl)c2)c1=O)NCCc1ccncc1 [Example E-0079] | 
4 | 12 | COc1ccc(-c2c(Cl)nc(NCCc3ccc(Cl)cc3)c(=O)n2CC(=O)NCCc2cccnc2)cc1 [Example E-0107] | 
0 | 4 | O=C(Cn1c(-c2ccc3c(c2)OCO3)c(Cl)nc(NCCc2cccnc2)c1=O)NCCc1ccncc1 [Example E-0045] | 
0 | 0 | O=C(Cn1c(Cc2ccccc2)c(Cl)nc(NCCc2ccccc2)c1=O)NCCc1ccncc1 [Example E-0058] | 
0 | 7 | O=C(Cn1c(-c2cccc(Cl)c2)c(Cl)nc(NCCc2ccccc2)c1=O)NCCc1cccnc1 [Example E-0077] | 
0 | 0 | O=C(Cn1c(CCc2ccccc2)c(Cl)nc(NCCc2cccnc2)c1=O)NCCc1ccncc1 [Example E-0069] | 
0 | 0 | O=C(Cn1c(Cc2ccccc2)c(Cl)nc(NCCN2CCOCC2)c1=O)NCCc1ccncc1 [Example E-0063] | 
3 | 9 | COc1ccc(-c2c(Cl)nc(NCCc3cccc(Cl)c3)c(=O)n2CC(=O)NCCc2cccnc2)cc1 [Example E-0104] | 
2 | 9 | O=C(Cn1c(-c2cccc(Cl)c2)c(Cl)nc(NCCc2ccc(Cl)cc2)c1=O)NCCc1cccnc1 [Example E-0095] | 
0 | 11 | O=C(Cn1c(-c2cccc(Cl)c2)c(Cl)nc(NCc2ccccc2)c1=O)NCCc1cccnc1 [Example E-0086] | 
0 | 2 | COc1ccc(-c2c(Cl)nc(NCCN3CCOCC3)c(=O)n2CC(=O)NCCc2ccncc2)cc1 [Example E-0039] | 
